Some test systems named below: HCC 2998; DU-145; OVCAR-3; BT-549; MDA-MB-231; NCI-H23; HCT-15; K562; Hs-578T; HOP-92; ACHN; RXF 393; NCI-H460; SF-539; M14; PC-3; TK-10; SK-MEL-5; RPMI-8226.
Common to all, as to experiment: NCI anticancer screen, dose series, 48 h

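Test compounds were applied to cells in 96-well plates for 48 hours at 5 doses. At the GI50, growth is halved.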 The source made the active and inactive calls. No stated cut-off is given here; in the data, active = GI50 up to about 1.1 µM and inactive = higher. Bounds are passed on as bounds.

On to `COc1cc(Br)cc2cc(-c3cn4ccsc4n3)c(=O)oc12`, for which the GI50 in the assay with HCC 2998 is 7.24 µM (inactive); in the assay on DU-145, 30.5 µM (inactive); with OVCAR-3 it was 35 µM (inactive); with BT-549, 20.3 µM (inactive); in the assay with MDA-MB-231, 20.6 µM (inactive); in the assay on NCI-H23, 39.1 µM (inactive). Besides, the GI50 is 33 µM in the assay with HCT-15; 32.1 µM (inactive) in the assay with K562; 41.5 µM (inactive) with Hs-578T; 11.1 µM (inactive) in the assay with HOP-92; 34.8 µM (inactive) with ACHN; 24.8 µM (inactive) with RXF 393. Further, the GI50 was 32 µM (inactive) with NCI-H460; 36.2 µM (inactive) with SF-539; 27.9 µM (inactive) in the assay with M14; 25.2 µM (inactive) in the assay on PC-3; 64.7 µM (inactive) with TK-10; 19.7 µM (inactive) with SK-MEL-5. Further, in the assay with RPMI-8226, the GI50 was 33.2 µM (inactive).

Turning to `CC1(C)CN=C(Nc2ccc(Cl)cc2)S1`, the GI50 in the assay on HCC 2998 is > 100 µM (inactive); in the assay on DU-145, > 100 µM (inactive); in the assay with OVCAR-3 it was 71.9 µM (inactive); with BT-549, > 100 µM (inactive); in the assay on MDA-MB-231, > 100 µM (inactive); in the assay on NCI-H23, 74.6 µM (inactive). In addition, the GI50 in the assay with HCT-15 is over 100 µM; in the assay on K562, > 100 µM (inactive); in the assay on Hs-578T, > 100 µM (inactive); with HOP-92, 29.5 µM (inactive); in the assay with ACHN, > 100 µM (inactive); in the assay on RXF 393, > 100 µM (inactive). Moreover, the GI50 is > 100 µM (inactive) in the assay on SF-539; > 100 µM (inactive) in the assay on M14; > 100 µM (inactive) in the assay with PC-3; 65.8 µM (inactive) with TK-10; 62.7 µM (inactive) in the assay with SK-MEL-5; 52.6 µM (inactive) in the assay with RPMI-8226.

Regarding `CCn1c2c(c3c(C(=O)OC)c(O)ccc31)C(=O)c1ccccc1C2=O`, the GI50 was 19.4 µM (inactive) in the assay on HCC 2998; 11.1 µM (inactive) in the assay with DU-145; 16.4 µM (inactive) in the assay with OVCAR-3; 12.5 µM (inactive) in the assay with BT-549; 15.4 µM (inactive) in the assay with MDA-MB-231; 18.3 µM (inactive) with NCI-H23. Besides, the GI50 with HCT-15 is 7.85 µM; in the assay with K562, 20.4 µM (inactive); with Hs-578T it was 10.1 µM (inactive); in the assay on HOP-92, 5.52 µM (inactive); with ACHN, 4.69 µM (inactive); in the assay with RXF 393, 16.1 µM (inactive). The GI50 in the assay on NCI-H460 was 7.19 µM (inactive); with SF-539 it was 13.2 µM (inactive); with M14, 14.2 µM (inactive); in the assay with PC-3, 12.4 µM (inactive); in the assay with TK-10, 32.4 µM (inactive); with SK-MEL-5, 11.7 µM (inactive). In addition, in the assay on RPMI-8226, the GI50 is 7.6 µM (inactive).

Take `C[C@]1(S(=O)(=O)c2ccccc2)C[C@H]2N(Cc3ccccc3)[C@@H]1CCC21OCCO1`: the GI50 is > 100 µM (inactive) in the assay with DU-145; > 100 µM (inactive) with OVCAR-3; > 100 µM (inactive) in the assay with BT-549; > 100 µM (inactive) with MDA-MB-231; 60.5 µM (inactive) in the assay with NCI-H23; 63.1 µM with HCT-15. Further, the GI50 in the assay with K562 is > 100 µM (inactive); in the assay on Hs-578T, > 100 µM (inactive); with HOP-92, 88.1 µM (inactive); in the assay with ACHN, > 100 µM (inactive); in the assay with RXF 393 it was > 100 µM (inactive); in the assay on NCI-H460, 67.9 µM (inactive). The GI50 with M14 was > 100 µM (inactive); in the assay on PC-3 it was 70.5 µM (inactive); in the assay on SK-MEL-5, 75.2 µM (inactive).

The record behind these values is ChEMBL document CHEMBL1201862, “PubChem BioAssay data set” (2004).
